Molecular target: GLP-1 Receptor (Homo sapiens, UniProt P43220)
Test: GLP-1R agonist cAMP stimulation assay (HEK293/GLP1R/CRE-LUC cells, Cisbio cAMP dynamic 2 kit)
Format: cell-based
Settings: Table 3, HEK293/GLP1R/CRE-LUC cells, 30 min
Experimental: Activation of GLP-1 receptor is known to stimulate cyclic AMP (cAMP) production in cells which indicates primary coupling to the G as subunit of the G protein heterotrimeric complex.
To optimize functional activity directed toward G as coupling, a HEK293/CRE-Luc cell line developed by HDB stably expressing the GLP-1 Receptor was used. 200× concentration of compound working solutions were prepared (Agilent Technologies Bravo) with ½ log serial dilution in 384-well Echo LDV plate (Labcyte, CatOLP-0200). 50 nL/well 200× concentration of compound working solutions were moved to 384-well white low volume plate (Greiner, Cat4784075) using Labcyte ECH0550.1×10^5 cells/mL HEK293/GLP1R/CRE-LUC (HD Biosciences) cell suspensions prepared with assay buffer (DPBS containing 0.5 mM IBMX (Sigma, Cat15879) and 0.10 BSA (GENVIEW, Cat4FA016-100g)), 10 uL cell suspensions were added to each well of previous generated assay plate which already contains 50 n^1 compound at 200 xconcentration using ThermioFisher Multidrop Combi (1000 cells/well). Seal the plate and incubate at 37 with […] for 30 m.
After incubation the cAMP assay signal was generated using cAMP dynamic 2 Kit (Cisbio). 5 μL cAMP-d2 working solution was added to each well, followed with 5 L Anti-cAMP antibody-cryptate working solution added to each well using ThermoFisher Multidrop Combi. Incubate at room temperature for 1 hour protected from light. Read the fluorescence at 665 and 615 nm with Reader PerkinElmer EnVision. % oActivity=100%×(mean RLU of test sample−mean RLU of vehicle control)/(mean RLU of MAX control−mean RLU of vehicle control)

GLP-1 Receptor, sequence (P43220 24-463, species assumed): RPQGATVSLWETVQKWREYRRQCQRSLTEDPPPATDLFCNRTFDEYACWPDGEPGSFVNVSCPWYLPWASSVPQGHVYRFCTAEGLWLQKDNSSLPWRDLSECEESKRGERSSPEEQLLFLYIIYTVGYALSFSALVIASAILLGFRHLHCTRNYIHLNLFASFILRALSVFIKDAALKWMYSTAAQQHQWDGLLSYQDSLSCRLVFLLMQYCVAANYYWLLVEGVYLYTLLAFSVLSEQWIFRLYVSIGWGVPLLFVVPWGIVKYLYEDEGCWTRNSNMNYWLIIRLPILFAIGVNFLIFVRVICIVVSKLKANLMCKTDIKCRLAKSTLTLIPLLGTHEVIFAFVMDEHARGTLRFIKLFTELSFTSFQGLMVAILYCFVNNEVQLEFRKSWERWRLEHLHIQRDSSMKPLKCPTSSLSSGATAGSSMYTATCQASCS

Compound	EC50
CCS(=O)(=NC)c1ccc(-n2ccn(-c3c4c(nn3-c3cc(C)c(F)c(C)c3)CCN(C(=O)c3cc5cc(C6CCOCC6)ccc5n3C[C@H]3CCO3)[C@H]4C)c2=O)cc1 (single isomer, unassigned) [Compound 165]	9.9 nM
Cc1cc(-n2nc3c(c2-n2ccn(-c4ccc(CS(C)(=N)=O)cc4)c2=O)[C@H](C)N(C(=O)c2cc4cc(C5CCOCC5)ccc4n2[C@@]2(c4noc(=O)[nH]4)C[C@@H]2C)CC3)cc(C)c1F (stereo partly drawn) [Compound 111, 3-[(1S,2S)-1-(2-{[(4S)-3-[3-(4-{[azanylidene(methyl)(oxo)-λ^6-sulfanyl]methyl}phenyl)-2-oxoimidazol-1-yl]-2-(4-fluoro-3,5-dimethylphenyl)-4-methyl-4,5,6,7-tetrahydropyrazolo[4,3-c]pyridin-5-yl]carbonyl}-5-(3,4,5,6-tetrahydro-2H-pyran-4-yl)indol-1-yl)-2-methylcyclopropyl]-4H,5H-1,2,4-oxadiazol-5-one]	0.014 nM
Cc1cc(-n2nc3c(c2-n2ccn(-c4ccc(S5(=O)=NCCC5)cc4)c2=O)[C@H](C)N(C(=O)c2cc4cc(C5CCOCC5)ccc4n2C2(c4nsc(=O)[nH]4)CC2)CC3)cc(C)c1F (single isomer, unassigned) [Compound 131]	0.05 nM
Cc1cc(-n2nc3c(c2-n2ccn(-c4ccc(S5(=O)=NCCC5)cc4)c2=O)[C@H](C)N(C(=O)c2cc4cc(C5CCOCC5)ccc4n2C2(c4nnn[nH]4)CC2)CC3)cc(C)c1F (single isomer, unassigned) [Compound 172]	0.037 nM
Cc1nnc(C2(n3c(C(=O)N4CCc5nn(-c6cc(C)c(F)c(C)c6)c(-n6ccn(-c7ccc(S8(=O)=NCCC8)cc7)c6=O)c5[C@@H]4C)cc4cc(C5CCOCC5)ccc43)CC2)o1 (single isomer, unassigned) [Compound 156]	1.5 nM
Cc1cc(-n2nc3c(c2-n2ccn(-c4ccc(S(C)(=N)=O)nc4)c2=O)[C@H](C)N(C(=O)c2cc4cc(C5CCOCC5)ccc4n2[C@@]2(c4noc(=O)[nH]4)C[C@@H]2C)CC3)cc(C)c1F (stereo partly drawn) [Compound 102, 3-[(1S,2S)-1-(2-{[(4S)-3-(3-{6-[azanylidene(methyl)(oxo)-λ^6-sulfanyl]pyridin-3-yl}-2-oxoimidazol-1-yl)-2-(4-fluoro-3,5-dimethylphenyl)-4-methyl-4,5,6,7-tetrahydropyrazolo[4,3-c]pyridin-5-yl]carbonyl}-5-(3,4,5,6-tetrahydro-2H-pyran-4-yl)indol-1-yl)-2-methylcyclopropyl]-4H,5H-1,2,4-oxadiazol-5-one]	0.17 nM
Cc1nnc(C2(n3c(C(=O)N4CCc5nn(-c6cc(C)c(F)c(C)c6)c(-n6ccn(-c7ccc(S8(=O)=NCCC8)cc7)c6=O)c5[C@@H]4C)cc4cc(C5CCOCC5)ccc43)CC2)o1 (single isomer, unassigned) [Compound 155]	0.99 nM
CCS(=N)(=O)c1ccc(-n2ccn(-c3c4c(nn3-c3cc(C)c(F)c(C)c3)CCN(C(=O)c3cc5cc(C6CCOCC6)ccc5n3[C@@]3(c5noc(=O)[nH]5)C[C@@H]3C)[C@H]4C)c2=O)cn1 (single isomer, unassigned) [Compound 141]	0.022 nM
CCS(=O)(=NC)c1ccc(-n2ccn(-c3c4c(nn3-c3cc(C)c(F)c(C)c3)CCN(C(=O)c3cc5cc(C6CCOCC6)ccc5n3Cc3cnc(C)cn3)[C@H]4C)c2=O)c(F)c1 (single isomer, unassigned) [Compound 170]	1.8 nM
Cc1cc(-n2nc3c(c2-n2ccn(-c4ccc(S(C)(=N)=O)cc4)c2=O)[C@H](C)N(C(=O)c2cc4cc(C5CCOCC5)ccc4n2[C@@]2(c4noc(=O)[nH]4)C[C@@H]2C)CC3)cc(C)c1F (stereo partly drawn) [Compound 110]	0.028 nM
CN=S(=O)(c1ccc(-n2ccn(-c3c4c(nn3-c3cc(C)c(F)c(C)c3)CCN(C(=O)c3cc5cc([C@H]6CCOC(C)(C)C6)ccc5n3[C@@]3(c5noc(=O)[nH]5)C[C@@H]3C)[C@H]4C)c2=O)c(F)c1C(C)C)C1CC1 (single isomer, unassigned) [Compound 219]	0.193 nM
CCS(=N)(=O)c1ccc(-n2ccn(-c3c4c(nn3-c3cc(C)c(F)c(C)c3)CCN(C(=O)c3cc5cc(C6CCOCC6)ccc5n3[C@@]3(c5noc(=O)[nH]5)C[C@@H]3C)[C@H]4C)c2=O)cc1 (single isomer, unassigned) [Compound 116]	0.049 nM
CN=S(C)(=O)c1ccc(-n2ccn(-c3c4c(nn3-c3cc(C)c(F)c(C)c3)CCN(C(=O)c3cc5cc(C6CCOCC6)ccc5n3[C@@]3(c5noc(=O)[nH]5)C[C@@H]3C)[C@H]4C)c2=O)cc1 (single isomer, unassigned) [Compound 112]	0.057 nM
CN=S1(=O)CCC(Oc2ccc(-n3ccn(-c4c5c(nn4-c4cc(C)c(F)c(C)c4)CCN(C(=O)c4cc6cc(C7CCOCC7)ccc6n4[C@@]4(c6noc(=O)[nH]6)C[C@@H]4C)[C@H]5C)c3=O)c(F)c2C)CC1 (single isomer, unassigned) [Compound 232]	0.037 nM
CN=S(=O)(c1ccc(-n2ccn(-c3c4c(nn3-c3cc(C)c(F)c(C)c3)CCN(C(=O)c3cc5cc([C@H]6CCOC(C)(C)C6)ccc5n3[C@@]3(c5noc(=O)[nH]5)C[C@@H]3C)[C@H]4C)c2=O)c(F)c1C(C)C)C1CC1 (single isomer, unassigned) [Compound 220]	0.134 nM
CC1=Cc2c(ccc(-n3ccn(-c4c5c(nn4-c4cc(C)c(F)c(C)c4)CCN(C(=O)c4cc6cc([C@H]7CCOC(C)(C)C7)ccc6n4[C@@]4(c6noc(=O)[nH]6)C[C@@H]4C)[C@H]5C)c3=O)c2F)S(=O)(C2CC2)=N1 (single isomer, unassigned) [Compound 211]	0.041 nM
CC1=Cc2cc(-n3ccn(-c4c5c(nn4-c4cc(C)c(F)c(C)c4)CCN(C(=O)c4cc6cc([C@H]7CCOC(C)(C)C7)ccc6n4[C@@]4(c6noc(=O)[nH]6)C[C@@H]4C)[C@H]5C)c3=O)ccc2S(C)(=O)=N1 (single isomer, unassigned) [Compound 206]	0.02 nM
Cc1cc(-n2nc3c(c2-n2ccn(-c4ccc5c(c4)CS(C)(=O)=N5)c2=O)[C@H](C)N(C(=O)c2cc4cc(C5CCOCC5)ccc4n2[C@@]2(c4noc(=O)[nH]4)C[C@@H]2C)CC3)cc(C)c1F (stereo partly drawn) [Compound 225]	0.028 nM
Cc1cc(-n2nc3c(c2N2CCN(c4ccc(S(C)(=N)=O)cc4)C2=O)[C@H](C)N(C(=O)c2cc4cc(C5CCOCC5)ccc4n2[C@@]2(c4noc(=O)[nH]4)C[C@@H]2C)CC3)cc(C)c1F (stereo partly drawn) [Compound 103, 3-[(1S,2S)-1-(2-{[(4S)-3-(3-{4-[azanylidene(methyl)(oxo)-λ^6-sulfanyl]phenyl}-2-oxotetrahydro-1H-imidazol-1-yl)-2-(4-fluoro-3,5-dimethylphenyl)-4-methyl-4,5,6,7-tetrahydropyrazolo[4,3-c]pyridin-5-yl]carbonyl}-5-(3,4,5,6-tetrahydro-2H-pyran-4-yl)indol-1-yl)-2-methylcyclopropyl]-4H,5H-1,2,4-oxadiazol-5-one]	0.14 nM
CN=S(=O)(c1cc(F)c(-n2ccn(-c3c4c(nn3-c3cc(C)c(F)c(C)c3)CCN(C(=O)c3cc5cc([C@H]6CCOC(C)(C)C6)ccc5n3[C@@]3(c5noc(=O)[nH]5)C[C@@H]3C)[C@H]4C)c2=O)cc1C)C1CC1 (single isomer, unassigned) [Compound 194]	0.046 nM
CCS(=N)(=O)c1ccc(-n2ccn(-c3c4c(nn3-c3cc(C)c(F)c(C)c3)CCN(C(=O)c3cc5cc(C6CCOCC6)ccc5n3[C@@]3(c5noc(=O)[nH]5)C[C@@H]3C)[C@H]4C)c2=O)cn1 (single isomer, unassigned) [Compound 140]	0.099 nM

Source: US12291529B2, “Heterocyclic GLP-1 agonists” (Gasherbrum Bio, Inc., priority 2023, dated 2025)
